Key:
human OAT3 = target: T1, human OAT3 (Homo sapiens, UniProt Q8TCC7); assay: Indirect uptake transporter assay, OAT3; assay type: in vitro ADME; design: key to Maximal Inhibition: ND: Not Determined (< 50% inhibition); NDe: Not Decisive (Activation or inhibition > 25% of the baseline but no trend observed); NIO: No Interaction Observed (< 20% inhibition)
T1 construct: expressed in transfected cells
T1 sequence (Q8TCC7 1-542): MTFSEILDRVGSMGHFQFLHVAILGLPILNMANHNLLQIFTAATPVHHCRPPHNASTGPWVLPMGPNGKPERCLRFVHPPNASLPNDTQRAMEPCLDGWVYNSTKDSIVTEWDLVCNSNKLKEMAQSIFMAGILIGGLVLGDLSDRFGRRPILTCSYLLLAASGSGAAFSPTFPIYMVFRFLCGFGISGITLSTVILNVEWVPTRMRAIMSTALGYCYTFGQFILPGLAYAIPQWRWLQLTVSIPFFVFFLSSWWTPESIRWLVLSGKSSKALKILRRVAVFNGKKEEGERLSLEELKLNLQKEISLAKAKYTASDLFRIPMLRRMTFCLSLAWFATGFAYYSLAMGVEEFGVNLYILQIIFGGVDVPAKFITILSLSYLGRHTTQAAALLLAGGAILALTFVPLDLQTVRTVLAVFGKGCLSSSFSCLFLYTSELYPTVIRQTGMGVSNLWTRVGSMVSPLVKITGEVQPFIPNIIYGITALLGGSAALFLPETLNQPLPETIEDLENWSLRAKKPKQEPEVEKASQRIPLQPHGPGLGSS
Source text: (§1) To determine whether memantine is an inhibitor of the human OATP2B1 (OATP-B), OCT1, OCT2, OAT3, PEPT1, PEPT2 uptake transporters. The standard uptake transporter assay is an indirect, inhibitory-type screening assay, performed with cold test article, which in this case was memantine. It provides information on any interaction (substrate or inhibitor) between selected uptake transporters and memantine that would affect the transport of the reporter compound. […] A radiolabeled reporter substrate is transported into the cells transfected with the selected human uptake transporter, and the inhibitory effect of memantine on the transport of this reporter substrate is measured. Values are presented on a relative scale; 100% defined as transport in the presence of the solvent and without memantine (no inhibition), and 0% defined as transport detected without transporter activity. IC50 is defined as the concentration required to inhibit the transport of the reporter substrate by 50%.
The uptake transporter assay was carried out under the conditions described in the table below, with either CHO cells or MDCKII cells stably expressing the respective uptake transporter.
Duplicate incubations of memantine (0 or DMSO control, 0.41, 1.2, 3.7, 11, 33, 100 and 300 µM) were conducted per concentration on transfected and in parental cells. A reference inhibitor (positive control, duplicate) was incubated in transfected cells.
CHO cells were cultured in a 1:1 mixture of Dubelcco’s Modified Eagle’s Medium (DMEM, Lonza, Allendale, NJ) and Ham's F-12 (F-12, Lonza, Allendale, NJ) and MDCKII cells in DMEM at 37°C in an atmosphere of 95:5 air:CO2. […]
(§2) After the experiment cells were rinsed with 2 x 100µl of Krebs-Henseleit buffer and lysed with 50 µl of 0.1M NaOH. ^3H-estrone-3-sulfate, ^14C-TEA, ^14C-metformin and ^3H-Gly-Sar transport was determined by total radioactivity by transferring an aliquot (35µl) from each well to a vial containing liquid scintillant for analysis.

OCT2 = target: T2, OCT2 (Homo sapiens, UniProt O15244); assay: Indirect uptake transporter assay, OCT2; assay type: in vitro ADME
T2 construct: expressed in transfected cells; host or cells: CHO cells
T2 sequence (O15244 1-555): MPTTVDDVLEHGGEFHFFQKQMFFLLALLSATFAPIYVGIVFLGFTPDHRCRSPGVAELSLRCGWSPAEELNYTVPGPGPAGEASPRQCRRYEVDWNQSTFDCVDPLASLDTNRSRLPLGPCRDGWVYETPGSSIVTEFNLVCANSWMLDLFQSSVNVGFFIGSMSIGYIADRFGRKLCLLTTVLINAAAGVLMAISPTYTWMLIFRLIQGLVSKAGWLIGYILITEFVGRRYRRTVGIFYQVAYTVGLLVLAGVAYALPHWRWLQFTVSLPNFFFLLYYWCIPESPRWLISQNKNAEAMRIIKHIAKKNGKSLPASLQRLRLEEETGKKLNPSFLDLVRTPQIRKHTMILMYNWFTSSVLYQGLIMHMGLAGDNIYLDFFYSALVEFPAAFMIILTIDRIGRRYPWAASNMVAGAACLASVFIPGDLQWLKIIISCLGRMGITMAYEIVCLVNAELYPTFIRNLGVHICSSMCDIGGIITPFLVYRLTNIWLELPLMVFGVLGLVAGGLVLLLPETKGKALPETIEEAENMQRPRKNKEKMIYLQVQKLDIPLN
Source text: as §1, with “50%. […]” for “50%.”
as §2

CC12CC3CC(C)(C1)CC(N)(C3)C2 [memantine]
interaction with OAT3 mediated estrone-3-sulfate transport (human OAT3): did not interact | Maximal Inhibition (human OAT3; OAT3, up to 300 µM): NDe | IC50 (human OAT3; OAT3, probe printed in Table 5: Metformin (2µM), methods and text: E3S): ND (Not Determined (< 50% inhibition)) | IC50 (OCT2; OCT2-mediated metformin uptake): 8.9 µM | IC50 (OCT2; OCT2, probe in Table 5: Gly-Sar (1.8 μM), methods and text: metformin): 8.86 µM
